In patent publication US20110201564A1, “SUBSTITUTED 7-SULFANYLMETHYL, 7-SULFINYLMETHYL AND 7-SULFONYLMETHYL INDOLES AND USE THEREOF” (BAYER SCHERING PHARMA AKTIENGESELLSCHAFT, priority 2008, published 2011):
Read-outs that look alike come from different tables or passages of the source.

How the values were obtained:
CYP3A4 [1] = biological target: T1, CYP3A4 (Homo sapiens, UniProt P08684); assay: CYP inhibition assay with human liver microsomes; assay type: in vitro ADME
T1 construct: using human liver microsomes (pool from various individuals); from tissue; host or cells: human liver microsomes (pool from various individuals)
Text: Inhibitory properties of an active ingredient on the cytochromes P450 (CYP) of the human body may entail extensive clinical effects (drug interactions) because most of the prescribed medicaments are degraded (metabolized) by these enzymes. The ones involved in this are in particular the CYP isoenzymes of the 1A and 2C families, CYP2D6 and, with a proportion of almost 50%, CYP3A4. In order to preclude or minimize these possible drug interactions (Drug-Drug Interactions, DDI), the ability of substances to be able to inhibit CYP1A2, CYP2C8, CYP2C9, CYP2D6 and CYP3A4 in humans is investigated using human liver microsomes (pool from various individuals). This takes place by measuring CYP isoform-specific metabolites formed from standard substrates such as, for example, phenacetin, amodiaquin, diclofenac, dextromethorphan, midazolam and testosterone. The inhibitory effects are investigated at six different concentrations of the test compounds (1.5, 3.1, 6.3, 12.5, 25 and 50 μM as maximum concentration or 0.6, 1.3, 2.5, 5, 10 and 20 μM as maximum concentration), comparing with the extent of the CYP isoform-specific metabolite formation of the standard substrates in the absence of the test compounds, and calculating the corresponding IC50 values. CYP isoform-specific standard inhibitors such as, for example, fluvoxamine, quercetin, sulfaphenazole, fluoxetine and ketoconazole serve as control of the results obtained. In order to obtain indications of the possible mechanism-based inhibitors (MBI) on CYP3A4, the human liver microsomes are incubated in the presence of the inhibitor to be investigated for 30 minutes before the addition of midazolam or testosterone as standard substrates of CYP3A4. A reduction in the IC50 obtained by comparison with the mixture without preincubation serves as an indicator of a mechanism-based inhibition. Mibefradil serves as positive control.
The incubations of the standard substrates with human liver microsomes (23-233 μg/mL) in the presence of the test compound (as potential inhibitor) are carried out in 96-well plates in a workstation (Tecan, Genesis, Crailsheim, Germany) at 37° C. The incubation times are 15-20 minutes. The test compounds are preferably dissolved in acetonitrile (1.0 or 2.5 mM stock solution). The 96-well plates are produced by sequential addition of a stock solution of NADP+, EDTA, glucose 6-phosphate and glucose-6-phosphate dehydrogenase in phosphate buffer (pH 7.4), the test compound, and a solution of standard substrate and human liver microsomes in phosphate buffer (pH 7.4). The total volume is 200 μl. The corresponding control incubations with and without standard inhibitor also take place on the 96-well plate. The incubations are stopped after the respective incubation time by adding 100 μl of acetonitrile in which there is a suitable internal standard. Precipitated proteins are removed by centrifugation (3000 rpm, 10 minutes, 10° C.). The resulting supernatants of the respective plates are combined on one plate and analyzed by LC-MS/MS. The […] values are generated from the resulting measured data and used to assess the inhibitory potential of the test compound.

CYP3A4 [2] = biological target: T1, CYP3A4; assay: Assay to assess irreversible CYP3A4 inhibition (mechanism-based inhibition) in human liver microsomes; assay type: in vitro ADME; conditions: CYP3A4 activity as 6β-hydroxytestosterone formation, 2-20 μM
Text: 8. Assay to Assess Irreversible CYP3A4 Inhibition
Cytochrom P450 enzyme inhibition, especially irreversible enzyme inhibition, also referred to as mechanism-based inhibition (MBI), is an unwanted metabolic property of a substance which may, on concurrent administration of other medicaments, lead to considerable drug interactions. Criteria for the presence of an irreversible inhibition are a time-, concentration- and cofactor- (nicotinamide adenine dinucleotide phosphate, NADPH) dependent inhibition. To this end, the compounds of the invention are incubated in vitro with human liver microsomes, the influence on the CYP3A4 activity and the metabolic degradation of the novel active ingredient is determined, and the prototypical parameters kinact, Ki and the partition ratio r are ascertained therefrom.
The compounds of the invention are incubated with concentrations of 2-20 μM. To this end, stock solutions of the active ingredients with a concentration of 0.2-2 mM are prepared in acetonitrile and then pipetted with a 1:100 dilution into the incubation mixture. The liver microsomes are incubated in 50 mM potassium phosphate buffer (pH 7.4) with and without NADPH-generating system consisting of 1 mM NADP^+, 5 mM glucose 6-phosphate and 1 unit of glucose 6-phosphate dehydrogenase, at 37° C. After defined preincubation times of 0-50 min, aliquots are removed from these mixtures, diluted 1:25 in a new incubation, and incubated in the presence of testosterone and new NADPH-generating system again for 20 min. These incubation mixtures are stopped with acetonitrile (final concentration about 30% v/v), and the protein is removed by centrifugation at about 15 000×g. The samples stopped in this way are either analyzed directly or stored at −20° C. until analyzed.
The analysis takes place by high performance liquid chromatography with mass spectrometry detection (LC-MS). The formation of 6β-hydroxytestosterone as measure of CYP3A4 activity, and the test substance still remaining is quantified. The parameters kinact, Ki and the partition ratio r are determined therefrom so as to assess the novel active ingredients in relation to MBI.

[3] = biological target: T2, progesterone receptor (PR) (Homo sapiens, UniProt P06401); assay: Cellular in vitro assay, GAL4-PR chimera luciferase reporter in CHO K1 cells (selectivity); assay type: cell-based; conditions: antagonism vs progesterone; CHO K1 GAL4-PR LBD luciferase reporter
T2 construct: of the progesterone receptor (PR, amino acids 680-933); expressed in transfected cells; host or cells: CHO K1
T2 sequence (P06401 680-933): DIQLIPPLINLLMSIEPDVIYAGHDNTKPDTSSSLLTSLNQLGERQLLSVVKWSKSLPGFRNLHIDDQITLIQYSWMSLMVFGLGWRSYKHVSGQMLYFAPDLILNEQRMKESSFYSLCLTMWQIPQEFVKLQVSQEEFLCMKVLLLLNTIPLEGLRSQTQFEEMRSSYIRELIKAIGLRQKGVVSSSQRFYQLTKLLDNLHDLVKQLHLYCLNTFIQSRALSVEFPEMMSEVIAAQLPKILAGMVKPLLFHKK
In short: (§1)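 CHO K1 cells stably expressing GAL4 DNA-binding domain fused to human MR, PR or AR ligand-binding domains plus GAL4-driven firefly luciferase; compounds added 10–30 min before agonist (aldosterone, progesterone or dihydrotestosterone), luciferase read after 5–6 h; IC50 from sigmoidal concentration–response curves.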

androgen receptor (AR) = biological target: T3, androgen receptor (AR) (Homo sapiens, UniProt P10275); assay: Cellular in vitro assay, GAL4-AR chimera luciferase reporter in CHO K1 cells (selectivity); assay type: cell-based; conditions: antagonism vs dihydrotestosterone; CHO K1 GAL4-AR LBD luciferase reporter
T3 construct: of the androgen receptor (AR, amino acids 667-919); expressed in transfected cells; host or cells: CHO K1
T3 sequence (P10275 668-920): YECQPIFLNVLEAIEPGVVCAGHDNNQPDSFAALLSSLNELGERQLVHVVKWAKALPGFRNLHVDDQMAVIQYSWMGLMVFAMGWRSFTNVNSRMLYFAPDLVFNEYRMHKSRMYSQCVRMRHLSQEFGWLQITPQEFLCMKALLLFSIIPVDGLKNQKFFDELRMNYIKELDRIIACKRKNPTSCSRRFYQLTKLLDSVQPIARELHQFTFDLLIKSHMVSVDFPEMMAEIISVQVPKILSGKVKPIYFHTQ
In short: as §1

[4] = biological target: T4, human mineralocorticoid receptor (MR) (Homo sapiens, UniProt P08235); assay: Cellular in vitro assay, GAL4-MR chimera luciferase reporter in CHO K1 cells (inhibitory MR activity); assay type: cell-based; conditions: antagonism vs aldosterone; CHO K1 GAL4-MR LBD luciferase reporter
T4 construct: expressed in transfected cells; host or cells: CHO K1
T4 sequence (P08235 734-984 limits assumed): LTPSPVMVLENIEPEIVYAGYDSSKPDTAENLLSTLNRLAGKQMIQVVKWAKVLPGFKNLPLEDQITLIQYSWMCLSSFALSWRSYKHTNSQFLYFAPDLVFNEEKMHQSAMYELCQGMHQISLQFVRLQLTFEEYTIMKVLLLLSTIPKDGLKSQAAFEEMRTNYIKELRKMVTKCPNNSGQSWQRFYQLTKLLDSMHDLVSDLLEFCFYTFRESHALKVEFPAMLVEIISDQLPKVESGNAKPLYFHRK
In short: as §1

T1 sequence (P08684 whole entry): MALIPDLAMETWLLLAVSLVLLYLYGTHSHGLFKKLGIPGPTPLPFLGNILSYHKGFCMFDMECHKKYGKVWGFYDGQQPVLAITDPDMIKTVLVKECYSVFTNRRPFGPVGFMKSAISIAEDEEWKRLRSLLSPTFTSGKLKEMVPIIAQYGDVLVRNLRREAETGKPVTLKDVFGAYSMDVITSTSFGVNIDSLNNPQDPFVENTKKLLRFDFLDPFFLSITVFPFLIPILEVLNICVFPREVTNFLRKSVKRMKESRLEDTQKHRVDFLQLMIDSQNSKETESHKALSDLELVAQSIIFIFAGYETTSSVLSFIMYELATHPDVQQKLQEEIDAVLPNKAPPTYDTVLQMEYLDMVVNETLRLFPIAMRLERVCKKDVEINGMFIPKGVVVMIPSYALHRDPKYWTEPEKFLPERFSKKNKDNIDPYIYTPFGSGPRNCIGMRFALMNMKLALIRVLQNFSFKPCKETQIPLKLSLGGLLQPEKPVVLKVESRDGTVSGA

IC50 (CYP3A4 [1]; 30 min preincubation with test compound before substrate, read-out: CYP 3A4 Preincubation, 30 min.) [µM]	IC50 (CYP3A4 [1]; without preincubation, read-out: CYP 3A4 Coincubation) [µM]	Partition ratio r (CYP3A4 [2])	IC50 [3] [µM]	IC50 (androgen receptor (AR)) [µM]	IC50 [4] [µM]	SMILES
11.2	> 20	250	–	–	–	CS(=O)(=O)Cc1cccc2c(C(c3ccc(F)cc3)c3ccc(Cl)cc3F)c[nH]c12 (single isomer, unassigned) [Example 118-1, 3-[(4-Chloro-2-fluorophenyl)(4-fluorophenyl)methyl]-7-[(methylsulfonyl)methyl]-1H-indole]
–	–	>200	10	3.9	0.008	CS(=O)(=O)Cc1cc(F)cc2c(C(c3ccc(Cl)cc3)C3CC3C#N)c[nH]c12 (single isomer, unassigned) [Example 277-1-1, 2-[(4-Chlorophenyl){5-fluoro-7-[(methylsulfonyl)methyl]-1H-indol-3-yl}methyl]cyclopropane-carbonitrile]
–	–	>200	3	1.29	0.007	CS(=O)(=O)Cc1cc(F)cc2c(C(c3ccc(F)cc3Cl)C3CC3C#N)c[nH]c12 (single isomer, unassigned) [Example 266-1, 2-[(2-Chloro-4-fluorophenyl){5-fluoro-7-[(methylsulfonyl)methyl]-1H-indol-3-yl}methyl]cyclopropanecarbonitrile]
–	–	100	4.07	5.67	0.09	CS(=O)(=O)Cc1cccc2c(C(CCC#N)c3ccc(C(F)(F)F)cc3)c[nH]c12 (single isomer, unassigned) [Example 56-1, 4-{7-[(Methylsulfonyl)methyl]-1H-indol-3-yl}-4-[4-(trifluoromethyl)phenyl]butanonitrile]
